For 4 molecules, TGI results are on record in PubChem BioAssay (NCI).

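96-well plates; 48 h exposure; 5 concentrations. Endpoints by linear interpolation between flanking doses. Not reached: highest tested concentration assigned. TGI marks complete inhibition of growth.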

The test system of the first assay is M14 melanoma. Kind of assay: NCI anticancer screen, dose series, 48 h.
`CCCCCCCCOCC(COC(=O)CCCCCCC)OC(=O)CCCCCCC` (stereo not drawn) returned a TGI of over 100 µM.

As for `O=C1CC(c2ccc(Cl)cc2)=Nc2ccccc2N1`, the TGI is over 100 µM.

`CCOC(=O)c1ccc(N=Nc2ccc(N(CCC#N)CCC#N)cc2C)cc1` returned a TGI of over 100 µM.

A further assay deals with HOP-62 NSCLC. Kind of assay: NCI anticancer screen, dose series, 48 h.
`COC(=O)C(C(=O)C(=O)Nc1c(Cl)cc([N+](=O)[O-])cc1Cl)c1csc(-n2nc(C3=CCCCC3)cc2-c2ccccc2)n1` (stereo not drawn) displayed a TGI of over 100 µM.

`CCCCCCCCOCC(COC(=O)CCCCCCC)OC(=O)CCCCCCC` (stereo not drawn): the TGI was over 100 µM.

Take `O=C1CC(c2ccc(Cl)cc2)=Nc2ccccc2N1`: the TGI was over 100 µM.

Consider `CCOC(=O)c1ccc(N=Nc2ccc(N(CCC#N)CCC#N)cc2C)cc1`, for which the TGI is over 100 µM.

In the next assay the test system is NCI-H522 lung. Kind of assay: NCI anticancer screen, dose series, 48 h.
As to `COC(=O)C(C(=O)C(=O)Nc1c(Cl)cc([N+](=O)[O-])cc1Cl)c1csc(-n2nc(C3=CCCCC3)cc2-c2ccccc2)n1` (stereo not drawn), the TGI was over 100 µM.

With `O=C1CC(c2ccc(Cl)cc2)=Nc2ccccc2N1`, the TGI was over 100 µM.

With `CCOC(=O)c1ccc(N=Nc2ccc(N(CCC#N)CCC#N)cc2C)cc1`, the TGI was over 100 µM.

The subject of a further assay is SN12C renal. Kind of assay: NCI anticancer screen, dose series, 48 h.
On to `COC(=O)C(C(=O)C(=O)Nc1c(Cl)cc([N+](=O)[O-])cc1Cl)c1csc(-n2nc(C3=CCCCC3)cc2-c2ccccc2)n1` (stereo not drawn), for which the TGI was over 100 µM.

As for `CCCCCCCCOCC(COC(=O)CCCCCCC)OC(=O)CCCCCCC` (stereo not drawn), the TGI was over 100 µM.

Regarding `O=C1CC(c2ccc(Cl)cc2)=Nc2ccccc2N1`, the TGI was over 100 µM.

As to `CCOC(=O)c1ccc(N=Nc2ccc(N(CCC#N)CCC#N)cc2C)cc1`, the TGI is over 100 µM.

In a further assay the test system is OVCAR-4 ovarian. Kind of assay: NCI anticancer screen, dose series, 48 h.
As to `COC(=O)C(C(=O)C(=O)Nc1c(Cl)cc([N+](=O)[O-])cc1Cl)c1csc(-n2nc(C3=CCCCC3)cc2-c2ccccc2)n1` (stereo not drawn), the TGI was over 100 µM.

Molecule `CCCCCCCCOCC(COC(=O)CCCCCCC)OC(=O)CCCCCCC` (stereo not drawn) had a TGI of over 100 µM.

Regarding `O=C1CC(c2ccc(Cl)cc2)=Nc2ccccc2N1`, the TGI was over 100 µM.

In the case of `CCOC(=O)c1ccc(N=Nc2ccc(N(CCC#N)CCC#N)cc2C)cc1`, the TGI was over 100 µM.

The subject of another assay is HCT-15 colon. Kind of assay: NCI anticancer screen, dose series, 48 h.
`COC(=O)C(C(=O)C(=O)Nc1c(Cl)cc([N+](=O)[O-])cc1Cl)c1csc(-n2nc(C3=CCCCC3)cc2-c2ccccc2)n1` (stereo not drawn) had a TGI of over 100 µM.

The molecule `CCCCCCCCOCC(COC(=O)CCCCCCC)OC(=O)CCCCCCC` (stereo not drawn) gave a TGI of over 100 µM.

Turning to `O=C1CC(c2ccc(Cl)cc2)=Nc2ccccc2N1`, the TGI is over 100 µM.

Turning to `CCOC(=O)c1ccc(N=Nc2ccc(N(CCC#N)CCC#N)cc2C)cc1`, the TGI was over 100 µM.

The next assay concerns EKVX NSCLC. Kind of assay: NCI anticancer screen, dose series, 48 h.
Take `COC(=O)C(C(=O)C(=O)Nc1c(Cl)cc([N+](=O)[O-])cc1Cl)c1csc(-n2nc(C3=CCCCC3)cc2-c2ccccc2)n1` (stereo not drawn): the TGI stood at 94.7 µM.

As for `O=C1CC(c2ccc(Cl)cc2)=Nc2ccccc2N1`, the TGI is over 100 µM.

As to `CCOC(=O)c1ccc(N=Nc2ccc(N(CCC#N)CCC#N)cc2C)cc1`, the TGI is over 100 µM.

Another assay deals with ACHN renal. Kind of assay: NCI anticancer screen, dose series, 48 h.
`COC(=O)C(C(=O)C(=O)Nc1c(Cl)cc([N+](=O)[O-])cc1Cl)c1csc(-n2nc(C3=CCCCC3)cc2-c2ccccc2)n1` (stereo not drawn): the TGI is over 100 µM.

Consider `CCCCCCCCOCC(COC(=O)CCCCCCC)OC(=O)CCCCCCC` (stereo not drawn), for which the TGI is over 100 µM.

Consider `O=C1CC(c2ccc(Cl)cc2)=Nc2ccccc2N1`, for which the TGI was over 100 µM.

`CCOC(=O)c1ccc(N=Nc2ccc(N(CCC#N)CCC#N)cc2C)cc1` yielded a TGI of over 100 µM.

For the next assay, the system named is K-562 leukemia. Kind of assay: NCI anticancer screen, dose series, 48 h.
`COC(=O)C(C(=O)C(=O)Nc1c(Cl)cc([N+](=O)[O-])cc1Cl)c1csc(-n2nc(C3=CCCCC3)cc2-c2ccccc2)n1` (stereo not drawn) returned a TGI of over 100 µM.

The molecule `CCCCCCCCOCC(COC(=O)CCCCCCC)OC(=O)CCCCCCC` (stereo not drawn) had a TGI of over 100 µM.

`O=C1CC(c2ccc(Cl)cc2)=Nc2ccccc2N1`: the TGI was over 100 µM.

The molecule `CCOC(=O)c1ccc(N=Nc2ccc(N(CCC#N)CCC#N)cc2C)cc1` yielded a TGI of over 100 µM.

For another assay, the system named is SF-539 CNS. Kind of assay: NCI anticancer screen, dose series, 48 h.
As for `COC(=O)C(C(=O)C(=O)Nc1c(Cl)cc([N+](=O)[O-])cc1Cl)c1csc(-n2nc(C3=CCCCC3)cc2-c2ccccc2)n1` (stereo not drawn), the TGI was over 100 µM.

Consider `O=C1CC(c2ccc(Cl)cc2)=Nc2ccccc2N1`, for which the TGI is over 100 µM.

`CCOC(=O)c1ccc(N=Nc2ccc(N(CCC#N)CCC#N)cc2C)cc1` returned a TGI of over 100 µM.

The subject of a further assay is U251 CNS. Kind of assay: NCI anticancer screen, dose series, 48 h.
Molecule `COC(=O)C(C(=O)C(=O)Nc1c(Cl)cc([N+](=O)[O-])cc1Cl)c1csc(-n2nc(C3=CCCCC3)cc2-c2ccccc2)n1` (stereo not drawn) gave a TGI of over 100 µM.

Consider `CCCCCCCCOCC(COC(=O)CCCCCCC)OC(=O)CCCCCCC` (stereo not drawn), for which the TGI is over 100 µM.

Consider `O=C1CC(c2ccc(Cl)cc2)=Nc2ccccc2N1`, for which the TGI stood at 75.6 µM.

`CCOC(=O)c1ccc(N=Nc2ccc(N(CCC#N)CCC#N)cc2C)cc1` displayed a TGI of over 100 µM.

The next assay has as its system CCRF-CEM leukemia. Kind of assay: NCI anticancer screen, dose series, 48 h.
Consider `COC(=O)C(C(=O)C(=O)Nc1c(Cl)cc([N+](=O)[O-])cc1Cl)c1csc(-n2nc(C3=CCCCC3)cc2-c2ccccc2)n1` (stereo not drawn), for which the TGI is over 100 µM.

Take `CCCCCCCCOCC(COC(=O)CCCCCCC)OC(=O)CCCCCCC` (stereo not drawn): the TGI was over 100 µM.

As to `O=C1CC(c2ccc(Cl)cc2)=Nc2ccccc2N1`, the TGI was found to be 41.9 µM.

The molecule `CCOC(=O)c1ccc(N=Nc2ccc(N(CCC#N)CCC#N)cc2C)cc1` had a TGI of over 100 µM.

A further assay concerns DMS 114 small cell lung. Kind of assay: NCI anticancer screen, dose series, 48 h.
For `CCCCCCCCOCC(COC(=O)CCCCCCC)OC(=O)CCCCCCC` (stereo not drawn), the TGI is over 100 µM.

`O=C1CC(c2ccc(Cl)cc2)=Nc2ccccc2N1`: the TGI is over 100 µM.

As to `CCOC(=O)c1ccc(N=Nc2ccc(N(CCC#N)CCC#N)cc2C)cc1`, the TGI is over 100 µM.

A further assay deals with IGROV1 ovarian. Kind of assay: NCI anticancer screen, dose series, 48 h.
`CCCCCCCCOCC(COC(=O)CCCCCCC)OC(=O)CCCCCCC` (stereo not drawn) had a TGI of over 100 µM.

In turn, `O=C1CC(c2ccc(Cl)cc2)=Nc2ccccc2N1` registered a TGI of over 100 µM.

As to `CCOC(=O)c1ccc(N=Nc2ccc(N(CCC#N)CCC#N)cc2C)cc1`, the TGI is over 100 µM.

The subject of another assay is SR leukemia. Kind of assay: NCI anticancer screen, dose series, 48 h.
Consider `COC(=O)C(C(=O)C(=O)Nc1c(Cl)cc([N+](=O)[O-])cc1Cl)c1csc(-n2nc(C3=CCCCC3)cc2-c2ccccc2)n1` (stereo not drawn), for which the TGI was 78 µM.

In the case of `CCCCCCCCOCC(COC(=O)CCCCCCC)OC(=O)CCCCCCC` (stereo not drawn), the TGI is over 100 µM.

Molecule `O=C1CC(c2ccc(Cl)cc2)=Nc2ccccc2N1` gave a TGI of over 100 µM.
